Our source for the EC50 values is EP4707393A1, “DOUBLE-STRANDED SIRNA, CONJUGATE THEREOF AND USE THEREOF” (CMS Research & Development Pte. Ltd., priority 2023, dated 2024).

In this data set the test system is human LPA gene (Genbank number: NM_005577.4). The experiment in a line: Inhibitory activity against LPA mRNA, psiCHECK-2 dual-luciferase reporter vector in Huh7 cells. Conditions: Huh7 cells transfected with LPA_psiCHECK-2 plasmid, RNAiMAX transfection. It counts as cell-based. On the procedure: A stock solution was prepared by dissolving in PBS and stored at -20 °C.
The human LPA gene (Genbank number: NM_005577.4) was cloned into the psiCHECK™-2 vector.
Huh7 cells were cultured in DMEM (Gibco-11995-065, 500 mL) medium, supplemented with FBS (ExCellBio-FSP500, 57 mL), Penicillin-Streptomycin solution (Hyclone-SV30010, 5.7 mL), GlutaMAX™ (Gibco-35050-061, 5.7 mL) and Non-Essential Amino Acids Solution (Gibco-11140050, 5.7 mL).
On Day 1, a method for transfection of the LPA_PSICHECK (TM)-2 plasmid is briefly described as follows: Huh7 cells were washed with DPBS, followed by digestion with 0.05% trypsin, gently pipetted into single cells in DMEM containing 10% FBS, and counted. Plasmid DNA was transferred into Huh7 cells using Fugene HD. The transfected cells were seeded into 96-well plates at a density of 10,000 cells per well, with 100 µL culture medium per well. The cells were incubated overnight in a 5% CO2 incubator at 37 °C.
On Day 2, the test compounds were diluted serially with PBS to 3 concentrations.
RNAiMAX transfection reagent was prepared by blending homogeneously with Opti-MEM at a ratio of RNAiMAX: Opti-MEM=3:47 in a 15 mL centrifuge tube as needed. The compounds were mixed with the RNAiMAX/Opti-MEM (1:1) and incubated for 15 min. The compound-containing RNAiMAX/Opti-MEM mixture was diluted 10-fold with fresh medium and blended homogeneously.
The medium in each well was aspirated, and then 100 µL of the fresh compound-containing medium was added, and then incubated in a 5% CO2, 37 °C incubator.
Experimental procedures refer to DUAL-GLO® Dual Luciferase Assay System instructions, briefly described as follows: Taking out the cells from the incubator, aspirating and discarding the supernatant, adding 75µL fresh culture medium and 75µL detection reagent, shaking for 10 minutes in the dark, and after the cells had been fully lysed, transfering100µL sample to an opaque whiteboard for detecting the Firefly luminescence signal; adding 50 µL Dual-Glo®Stop & Glo® test reagent to each well and detecting the Renilla luciferase signal after shaking for 10 minutes in the dark. The ratio of the reporter signal to the internal control reporter signal was calculated for each well.
[formula] % Inhibition = (1-Sampleratio/RNAiMAXcontrolratio) × 100% [formula]
A general note: Reporter assays use an easily measured gene product as a stand-in for the process of interest.
The substance “Z26: siRNA conjugate: sense SEQ ID NO:42, ligand D18 at 3' end of sense strand, antisense SEQ ID NO:65 (sense CCCTTATTGTTANACGA; antisense TCTCGTATNACAATAAGGGGCTT; ligand D18 at sense 3' end; listed as RNA; modified_base 1..2: mod_base = OTHER; note = 2'-O-methylcytidine; modified_base 3: mod_base = OTHER; modified_base 4: mod_base = OTHER; note = 2'-O-methyluridine; modified_base 5: mod_base = OTHER; note = 2'-fluorou; modified_base 1: mod_base = OTHER; note = 2'-fluorocytidine; note = 2'-O-methylg)” returned a 50% effective concentration (EC50) of 2.83 nM. Next, “Z36: siRNA conjugate: sense SEQ ID NO:50, ligand D18 at 3' end of sense strand, antisense SEQ ID NO:75 (sense CCTGCCAAGCTTGGTCATCTA; antisense TAGATGNCCAAGCTTGGCNGGTT; ligand D18 at sense 3' end; listed as RNA; modified_base 1..2: mod_base = OTHER; note = 2'-O-methylcytidine; modified_base 3: mod_base = OTHER; note = 2'-O-methyluridine; modified_base 4: mod_base = OTHER; note = 2'-O-methylguanosine; modified_base 5..6: mod_base = OTHER; note = 2'-O-m; modified_base 1: mod_base = OTHER; note = E-type vinylphosphonate-modified 2'-O-methyluridine; modified_base 2: mod_base = OTHER; note = 2'-fluoroadenosine; modified_base 4: m)”: 0.23 nM. For “Z37: siRNA conjugate: sense SEQ ID NO:51, ligand D18 at 3' end of sense strand, antisense SEQ ID NO:76 (sense CCTGCCAAGCTTGGTCATCTA; antisense TAGATGNCCAAGCTTGGCNGGTT; ligand D18 at sense 3' end; listed as RNA; modified_base 1..2: mod_base = OTHER; note = 2'-O-methylcytidine; modified_base 3: mod_base = OTHER; note = 2'-O-methyluridine; modified_base 4: mod_base = OTHER; note = 2'-O-methylguanosine; modified_base 5..6: mod_base = OTHER; note = 2'-O-m; modified_base 1: mod_base = OTHER; note = E-type vinylphosphonate-modified 2'-O-methyluridine; modified_base 2: mod_base = OTHER; note = 2'-deoxyadenosine; modified_base 4: mo)” the value was 0.23 nM; for “Z49: siRNA conjugate: sense SEQ ID NO:51, ligand D01 at 3' end of sense strand, antisense SEQ ID NO:85 (sense CCTGCCAAGCTTGGTCATCTA; antisense NAGATGNCCAAGCTTGGCNGGTT; ligand D01 at sense 3' end; listed as RNA; modified_base 1..2: mod_base = OTHER; note = 2'-O-methylcytidine; modified_base 3: mod_base = OTHER; note = 2'-O-methyluridine; modified_base 4: mod_base = OTHER; note = 2'-O-methylguanosine; modified_base 5..6: mod_base = OTHER; note = 2'-O-m; modified_base 1: mod_base = OTHER; note = n is B36; modified_base 2: mod_base = OTHER; note = 2'-deoxyadenosine; note = 2'-O-methyladenosine)”, 0.63 nM; for “Z50: siRNA conjugate: sense SEQ ID NO:51, ligand D01 at 3' end of sense strand, antisense SEQ ID NO:86 (sense CCTGCCAAGCTTGGTCATCTA; antisense TCTAGATNACCAAGCTTGGCAGG; ligand D01 at sense 3' end; listed as RNA; modified_base 1..2: mod_base = OTHER; note = 2'-O-methylcytidine; modified_base 3: mod_base = OTHER; note = 2'-O-methyluridine; modified_base 4: mod_base = OTHER; note = 2'-O-methylguanosine; modified_base 5..6: mod_base = OTHER; note = 2'-O-m; modified_base 1: mod_base = OTHER; note = 2'-fluoroadenosine; modified_base 5: mod_base = OTHER; note = 2'-O-methyl)”, 0.41 nM. For “Z51: siRNA conjugate: sense SEQ ID NO:49, ligand D01 at 3' end of sense strand, antisense SEQ ID NO:87 (sense CAGCCCCTTATTGTTATACGA; antisense TCGTATNACAATAAGGGGCNGTT; ligand D01 at sense 3' end; listed as RNA; modified_base 1: mod_base = OTHER; note = 2'-O-methylcytidine; modified_base 2: mod_base = OTHER; note = 2'-O-methyladenosine; modified_base 3: mod_base = OTHER; note = 2'-O-methylguanosine; modified_base 4..7: mod_base = OTHER; note = 2'-O-me; note = 2'-O-methyluridine; note = 2'-deoxycytidine; modified_base 4: mod_base = OTHER; note = 2'-O-methyl)” the value was 0.31 nM. As for “Z52: siRNA conjugate: sense SEQ ID NO:53, ligand D01 at 3' end of sense strand, antisense SEQ ID NO:88 (sense CTTGCCAAGCTTGGTCATCTA; antisense TCTAGATGNCCAAGCTTGGCAAG; ligand D01 at sense 3' end; listed as RNA; modified_base 1: mod_base = OTHER; note = 2'-O-methylcytidine; modified_base 2: mod_base = OTHER; note = 2'-O-methyluridine; modified_base 3: mod_base = OTHER; modified_base 4: mod_base = OTHER; note = 2'-O-methylgua; note = 2'-fluoroadenosine; modified_base 5: mod_base = OTHER; note = 2'-O-methyl)”, it took 0.14 nM to reach a half-maximal effect (EC50).

As a reminder, the EC50 is the concentration needed to bring the measured effect to its halfway point.
